Data reported in patent US20200172473A1, “DUAL MODULATORS OF FARNESOID X RECEPTOR AND SOLUBLE EPOXIDE HYDROLASE” (JOHANN WOLFGANG GOETHE-UNIVERSITÄT FRANKFURT AM MAIN, priority 2017, published 2020).

Legend:
[1] = biological target: T1, FXR-LBD (Homo sapiens, UniProt Q96RI1); assay: isothermal titration calorimetry (ITC); format: binding
T1 sequence (Q96RI1 262-486 limits assumed): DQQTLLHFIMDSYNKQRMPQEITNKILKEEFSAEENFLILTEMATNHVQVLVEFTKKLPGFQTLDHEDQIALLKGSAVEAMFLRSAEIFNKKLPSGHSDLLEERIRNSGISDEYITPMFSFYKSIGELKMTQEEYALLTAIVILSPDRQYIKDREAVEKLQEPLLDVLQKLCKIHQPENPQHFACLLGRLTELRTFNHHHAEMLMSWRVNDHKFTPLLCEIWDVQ

[2] = biological target: T2, PPARα (Homo sapiens, UniProt Q07869); assay: Gal4-hybrid reporter gene assay PPARα in HEK293T cells; format: cell-based; conditions: 10 μM
T2 construct: pFA-CMV-hPPARα-LBD; expressed in transfected cells; host or cells: HEK293T
T2 sequence (Q07869 239-466 limits assumed): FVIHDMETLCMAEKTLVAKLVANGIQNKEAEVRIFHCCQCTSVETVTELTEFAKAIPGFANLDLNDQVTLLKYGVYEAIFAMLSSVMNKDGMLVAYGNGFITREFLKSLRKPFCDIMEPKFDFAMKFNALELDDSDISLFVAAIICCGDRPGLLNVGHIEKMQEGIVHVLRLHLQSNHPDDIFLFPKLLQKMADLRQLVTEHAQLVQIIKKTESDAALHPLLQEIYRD
From the text: (§1) Hybrid reporter gene assays for PPARα/γ/δ, LXRα/β, RXRα/β/γ, RARα/β/γ, VDR and PXR Plasmids: The Gal4-fusion receptor plasmids pFA-CMV-hPPARα-LBD^52, pFA-CMV-hPPARγ-LBD^52, pFA-CMV-hPPARδ-LBD^52, pFA-CMV-hLXRα-LBD^32 and pFA-CMV-hLXRβ-LBD^32 have been reported previously. […] Frame and sequence of all fusion receptors were verified by sequencing. pFR-Luc (Stratagene) was used as reporter plasmid and pRL-SV40 (Promega) for normalization of transfection efficiency and cell growth.
Assay procedure: HEK293T cells were grown in DMEM high glucose, supplemented with 10% FCS, sodium pyruvate (1 mM), penicillin (100 U/mL) and streptomycin (100 μg/mL) at 37° C. and 5% CO2. The day before transfection, HEK293T cells were seeded in 96-well plates (2.5·10^4 cells/well). Before transfection, medium was changed to Opti-MEM without supplements. Transient transfection was carried out using Lipofectamine LTX reagent (Invitrogen) according to the manufacturer's protocol with pFR-Luc (Stratagene), pRL-SV40 (Promega) and pFA-CMV-hRXRα-LBD. 5 h after transfection, medium was changed to Opti-MEM supplemented with penicillin (100 U/mL), streptomycin (100 μg/mL), now additionally containing 0.1% DMSO and the respective test compound or 0.1% DMSO alone as untreated control. […] Luminescence was measured with an Infinite M200 luminometer (Tecan Deutschland GmbH). […]

[3] = biological target: T3, PPARγ (Homo sapiens, UniProt P37231); assay: Gal4-hybrid reporter gene assay PPARγ in HEK293T cells; format: cell-based
T3 construct: pFA-CMV-hPPARγ-LBD; expressed in transfected cells; host or cells: HEK293T
T3 sequence (P37231 238-503 limits assumed): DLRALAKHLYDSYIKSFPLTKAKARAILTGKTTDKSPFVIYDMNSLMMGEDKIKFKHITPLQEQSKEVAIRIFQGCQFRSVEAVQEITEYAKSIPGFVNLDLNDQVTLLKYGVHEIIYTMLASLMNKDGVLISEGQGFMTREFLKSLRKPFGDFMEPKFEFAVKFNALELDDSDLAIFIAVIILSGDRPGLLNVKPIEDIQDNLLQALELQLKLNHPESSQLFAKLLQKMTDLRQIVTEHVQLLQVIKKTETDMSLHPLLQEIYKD
From the text: as §1
Assay procedure: HEK293T cells were grown in DMEM high glucose, supplemented with 10% FCS, sodium pyruvate (1 mM), penicillin (100 U/mL) and streptomycin (100 μg/mL) at 37° C. and 5% CO2. The day before transfection, HEK293T cells were seeded in 96-well plates (2.5·10^4 cells/well). Before transfection, medium was changed to Opti-MEM without supplements. Transient transfection was carried out using Lipofectamine LTX reagent (Invitrogen) according to the manufacturer's protocol with pFR-Luc (Stratagene), pRL-SV40 (Promega) and pFA-CMV-hRXRα-LBD. 5 h after transfection, medium was changed to Opti-MEM supplemented with penicillin (100 U/mL), streptomycin (100 μg/mL), now additionally containing 0.1% DMSO and the respective test compound or 0.1% DMSO alone as untreated control. Each concentration was tested in triplicates and each experiment was repeated independently at least three times. […] Luminescence was measured with an Infinite M200 luminometer (Tecan Deutschland GmbH). […] Fold activation was obtained by dividing the mean RLU of a test compound at a respective concentration by the mean RLU of untreated control. Relative activation was obtained by dividing the fold activation of a test compound at a respective concentration by the fold activation of a respective reference agonist at 1 μM (PPARα: GW7647; PPARγ: pioglitazone; PPARδ: L165,041; LXRα/β: T0901317; RXRs: bexarotene; RARs: tretinoin; VDR calcitriol; PXR: SR12813).

## CC(C)(C)c1ccc(C(=O)NCc2ccc(NS(C)(=O)=O)cc2Cl)cc1 [compound 57, 4-(tert-Butyl)-N-(2-chloro-4-(methylsulfonamido)benzyl)benzamide]
[1]
  Kd: 0.13 µM
  ΔH (ITC): -81.6 kJ/mol
  ΔS (ITC): −34.0 cal/mol·K
[2]
  activity on PPARα: inactive
[3]
  selectivity for FXR amongst nuclear receptors: ≥ 720
[3]; relative to pioglitazone at 1 μM
  PPARγ max. activation: 30±1%
[3]; weak partial agonism
  EC50: 14.7 ± 0.9 µM
